According to ChEMBL document CHEMBL4346657, “Anticancer activity, dual prooxidant/antioxidant effect and apoptosis induction profile of new bichalcophene-5-carboxamidines” (Eur J Med Chem, 2019):
The source made the active and inactive calls. The calls are words filed in the database; no cut-off is given here.

Experiments:
[1] = test system: Panel NCI-60 (60 carcinoma cell lines); assay: Antiproliferative activity against human NCI60 cells assessed as growth inhibition after 48 hrs by sulforhodamine B assay; assay type: functional
WI-38 = assay: Cytotoxicity activity against human WI38 cells assessed as reduction in cell viability measured after 48 hrs by MTT assay; assay type: cell-based; details: WI-38, 48 h
[2] = Selectivity index, ratio of IC50 for human WI38 cells to GI50 for human NCI60 cells
MDA-MB-231 = assay: Antiproliferative activity against human MDA-MB-231/ATCC cells assessed as growth inhibition after 48 hrs by sulforhodamine B assay; assay type: functional; details: MDA-MB-231, 48 h
OVCAR-3 = assay: Antiproliferative activity against human OVCAR3 cells assessed as growth inhibition after 48 hrs by sulforhodamine B assay; assay type: functional; details: OVCAR-3, 48 h
DU-145 = assay: Antiproliferative activity against human DU145 cells assessed as growth inhibition after 48 hrs by sulforhodamine B assay; assay type: functional; details: DU-145, 48 h
A498 = assay: Antiproliferative activity against human A498 cells assessed as growth inhibition after 48 hrs by sulforhodamine B assay; assay type: functional; details: A498, 48 h
NCI/ADR-RES = assay: Antiproliferative activity against human NCI-ADR-RES cells assessed as growth inhibition after 48 hrs by sulforhodamine B assay; assay type: functional
IGROV-1 = assay: Antiproliferative activity against human IGROV1 cells assessed as growth inhibition after 48 hrs by sulforhodamine B assay; assay type: functional; details: IGROV-1, 48 h
UACC-62 = assay: Antiproliferative activity against human UACC62 cells assessed as growth inhibition after 48 hrs by sulforhodamine B assay; assay type: functional; details: UACC-62, 48 h
UACC-257 = assay: Antiproliferative activity against human UACC257 cells assessed as growth inhibition after 48 hrs by sulforhodamine B assay; assay type: functional; details: UACC-257, 48 h
MDA-MB-435 = assay: Antiproliferative activity against human MDA-MB-435 cells assessed as growth inhibition after 48 hrs by sulforhodamine B assay; assay type: functional; details: MDA-MB-435, 48 h
Malme-3M = assay: Antiproliferative activity against human MALME-3M cells assessed as growth inhibition after 48 hrs by sulforhodamine B assay; assay type: functional
LOX IMVI = assay: Antiproliferative activity against human LOXIMVI cells assessed as growth inhibition after 48 hrs by sulforhodamine B assay; assay type: functional
SNB-19 = assay: Antiproliferative activity against human SNB19 cells assessed as growth inhibition after 48 hrs by sulforhodamine B assay; assay type: functional; details: SNB-19, 48 h
SW-620 = assay: Antiproliferative activity against human SW620 cells assessed as growth inhibition after 48 hrs by sulforhodamine B assay; assay type: functional; details: SW-620, 48 h
KM12 = assay: Antiproliferative activity against human KM12 cells assessed as growth inhibition after 48 hrs by sulforhodamine B assay; assay type: functional; details: KM12, 48 h
HCC 2998 = assay: Antiproliferative activity against human HCC2998 cells assessed as growth inhibition after 48 hrs by sulforhodamine B assay; assay type: functional; details: HCC 2998, 48 h
COLO 205 = assay: Antiproliferative activity against human COLO205 cells assessed as growth inhibition after 48 hrs by sulforhodamine B assay; assay type: functional; details: COLO 205, 48 h
NCI-H522 = assay: Antiproliferative activity against human NCI-H522 cells assessed as growth inhibition after 48 hrs by sulforhodamine B assay; assay type: functional; details: NCI-H522, 48 h
NCI-H460 = assay: Antiproliferative activity against human NCI-H460 cells assessed as growth inhibition after 48 hrs by sulforhodamine B assay; assay type: functional; details: NCI-H460, 48 h
NCI-H322M = assay: Antiproliferative activity against human NCI-H322M cells assessed as growth inhibition after 48 hrs by sulforhodamine B assay; assay type: functional
HOP-92 = assay: Antiproliferative activity against human HOP92 cells assessed as growth inhibition after 48 hrs by sulforhodamine B assay; assay type: functional; details: HOP-92, 48 h
HOP-62 = assay: Antiproliferative activity against human HOP62 cells assessed as growth inhibition after 48 hrs by sulforhodamine B assay; assay type: functional; details: HOP-62, 48 h
EKVX = assay: Antiproliferative activity against human EKVX cells assessed as growth inhibition after 48 hrs by sulforhodamine B assay; assay type: functional
SR = assay: Antiproliferative activity against human SR cells assessed as growth inhibition after 48 hrs by sulforhodamine B assay; assay type: functional
K562 = assay: Antiproliferative activity against human K562 cells assessed as growth inhibition after 48 hrs by sulforhodamine B assay; assay type: functional, cell-based; details: K562, 48 h
BT-549 = assay: Antiproliferative activity against human BT549 cells assessed as growth inhibition after 48 hrs by sulforhodamine B assay; assay type: functional; details: BT-549, 48 h
T47D = assay: Antiproliferative activity against human T47D cells assessed as growth inhibition after 48 hrs by sulforhodamine B assay; assay type: functional
[3] = Haemolytic activity in human erythrocytes assessed as induction of hemolysis at 5 mM after 30 mins relative to H202; assay type: cell-based, Erythrocyte; details: read-out: Activity
Erythrocyte [4] = assay: (§1) Haemolytic activity in human erythrocytes assessed as induction of hemolysis at 2.5 mM after 30 mins relative to H202; assay type: cell-based; details: erythrocyte, 0.5 h, 2500 µM
Erythrocyte [5] = assay: Haemolytic activity in human erythrocytes assessed as induction of hemolysis at 0.625 mM after 30 mins relative to H202; assay type: cell-based; details: erythrocyte, 0.5 h, 625 µM
[6] = Antioxidant activity assessed as DPPH radical scavenging activity incubated in dark for 30 mins by spectrophotometric method relative to ascorbic acid; assay type: functional
[7] = Antioxidant activity assessed as ABTS radical scavenging activity by spectrophotometric method relative to ascorbic acid; assay type: functional
[8] = Antioxidant activity assessed as hydroxyl radical scavenging activity after 1 hr by salicylic acid-based Fenton reaction assay; assay type: functional
HCT-116 [9] = assay: Induction of apoptosis in human HCT116 cells assessed as increase in caspase 3 mRNA expression at 100 nM after 6 hrs hrs by SYBR green dye-based qRT-PCR analysis relative to control; assay type: functional
HCT-116 [10] = assay: […] in CDK1 mRNA expression in human HCT116 cells at 100 nM after 6 hrs hrs by SYBR green dye-based qRT-PCR analysis relative to control; assay type: functional
HCT-116 [11] = assay: Reduction in CDK1 mRNA expression in human HCT116 cells at 100 nM after 6 hrs hrs by SYBR green dye-based qRT-PCR analysis relative to control; assay type: functional; details: HCT-116, 6 h
[12] = as §1; assay type: cell-based, Erythrocyte; details: erythrocytes, read-out: Activity
[13] = Haemolytic activity in human erythrocytes assessed as induction of hemolysis at 1.25 mM after 30 mins relative to H202; assay type: cell-based, Erythrocyte; details: erythrocytes, read-out: Activity

## N=C(N)c1ccc(-c2ccc(-c3cncc4ccccc34)s2)s1
[1]
  GI50: 1.34 µM
  LC50: 77.6 µM
  TGI: 3.23 µM
WI-38
  IC50: > 100 µM
[2]
  Selectivity Index: >74.6
MDA-MB-231
  GI50: 1.35 µM
OVCAR-3
  GI50: 1.65 µM
DU-145
  GI50: 1.55 µM
A498
  GI50: 1.69 µM
NCI/ADR-RES
  GI50: 1.68 µM
IGROV-1
  GI50: 1.91 µM
UACC-62
  GI50: 2.31 µM
UACC-257
  GI50: 2.47 µM
MDA-MB-435
  GI50: 2.03 µM
Malme-3M
  GI50: 1.61 µM
LOX IMVI
  GI50: 1.11 µM
SNB-19
  GI50: 2.17 µM
SW-620
  GI50: 1.08 µM
KM12
  GI50: 1.51 µM
HCC 2998
  GI50: 1.53 µM
COLO 205
  GI50: 0.75 µM
NCI-H522
  GI50: 1.65 µM
NCI-H460
  GI50: 0.88 µM
NCI-H322M
  GI50: 1.66 µM
HOP-92
  GI50: 1.37 µM
HOP-62
  GI50: 1.7 µM
EKVX
  GI50: 1.33 µM
SR
  GI50: 0.27 µM
K562; read-out: IC50
  IC50: 0.24 µM
K562; read-out: pIC50 (converted)
  IC50: 38000 µM
BT-549
  GI50: 1.51 µM
T47D
  GI50: 1.52 µM
[3]
  hemolysis at 0.5 h, 5000 µM: 4%
Erythrocyte [4]
  Activity: Non-Toxic
Erythrocyte [5]
  Activity: Non-Toxic
[6]
  fold change (FC): 0.6
[7]
  fold change (FC): 0.8
[8]
  Activity: Active
HCT-116 [9]
  fold change (FC): 3.03
HCT-116 [10]
  fold change (FC): 0.16
HCT-116 [11]
  inhibition at 0.1 µM: 84%

## N=C(N)c1ccc(-c2ccc(-c3ccc(Cl)cc3)o2)o1
[1]
  GI50: 1.81 µM
  LC50: 12.6 µM
  TGI: 3.72 µM
WI-38
  IC50: 10.1 µM
[2]
  Selectivity Index: 5.5
MDA-MB-231
  GI50: 2.01 µM
OVCAR-3
  GI50: 1.83 µM
DU-145
  GI50: 1.75 µM
A498
  GI50: 2.12 µM
NCI/ADR-RES
  GI50: 1.8 µM
IGROV-1
  GI50: 1.77 µM
UACC-62
  GI50: 1.89 µM
UACC-257
  GI50: 1.99 µM
MDA-MB-435
  GI50: 1.38 µM
Malme-3M
  GI50: 1.91 µM
LOX IMVI
  GI50: 1.76 µM
SNB-19
  GI50: 1.86 µM
SW-620
  GI50: 1.7 µM
KM12
  GI50: 1.63 µM
HCC 2998
  GI50: 1.96 µM
COLO 205
  GI50: 1.83 µM
NCI-H522
  GI50: 1.73 µM
NCI-H460
  GI50: 1.89 µM
NCI-H322M
  GI50: 1.67 µM
HOP-62
  GI50: 1.65 µM
EKVX
  GI50: 1.5 µM
SR
  GI50: 1.63 µM
K562; read-out: IC50
  IC50: 1.37 µM
BT-549
  GI50: 5.92 µM
T47D
  GI50: 1.71 µM
[3]
  hemolysis at 0.5 h, 5000 µM: 70.7%
[12]
  hemolysis at 0.5 h, 2500 µM: 41.3%
[13]
  hemolysis at 0.5 h, 1250 µM: 14%
Erythrocyte [5]
  Activity: Non-Toxic
[6]
  fold change (FC): 0.2
[7]
  fold change (FC): 0.2
[8]
  Activity: Active
HCT-116 [9]
  fold change (FC): 3.55
HCT-116 [10]
  fold change (FC): 0.93
